Measurements as given in paper PMC2361324, “Phase 1 trial of the antiangiogenic peptide ATN-161 (Ac-PHSCN-NH2), a beta integrin antagonist, in patients with solid tumours” (British Journal of Cancer, 2006).
Read-outs that look alike come from different tables or passages of the source.

Legend:
[1] = except at extremely high, supratherapeutic doses, ref not given, cited from earlier work
Description: These preclinical animal models included assessment of the effects of ATN-161 on tumour growth, metastasis, angiogenesis, tumour perfusion and circulating endothelial progenitor cells (CEPs) ([Donate et al, 2003]). […] We designed the phase 1 trial to evaluate a dose range in human beings (using well-established rules for interspecies dose conversi ...

[2] = Urinary excretion and renal clearance in phase 1 trial; format: in vivo, human; conditions: urine; for dose excreted: human, iv
Method: (§3) Blood samples for PK analysis were collected in EDTA-coated tubes on Day 1 for all patients preinfusion, at the end of infusion, and at 5, 10, 15, 30, 45, 60, 90, 120, 150, 180, 240, 400, 460 and 520 min after infusion. Samples were immediately centrifuged, and the plasma was separated and stored at −20°C prior to analysis.
(§4) Pharmacokinetic data were modelled using a noncompartmental approach to estimate individual subject values for the following parameters: maximum observed concentration (Cmax), time of the maximum observed concentration (Tmax), volume of distribution at steady state (VSS), terminal elimination half-life (t1/2), total systemic clearance (CL), area under the plasma concentration-time curve (AUC), and CLr. For these parameters the mean and s.d. coefficient of variation were calculated.
(§5) Descriptive PKs parameters were determined by standard model independent methods for infusion administration ([Perrier and Gibaldi, 1982]) from plasma concentrations in each individual patient. Plasma and urine concentrations were rounded to the nearest [drawing 1] ng ml^−1 before the calculations. Plasma samples with concentrations below the quantifiable limit of 50.0 ng ml^−1 (BQL) were assigned values of zero for generation of mean and s.d. plasma concentrations. For PKs calculations, BQL was treated as zero up to the first quantifiable plasma concentration and then treated as an empty value thereafter. Urine samples reported as BQL (⩽50.0 ng ml^−1) were treated as zero for all calculations. Actual patient blood collection sampling times relative to the start of infusion were used for PKs calculations; however, scheduled collection times were used for urinary excretion data and graphical presentations of all data.

integrin beta subunits = conditions: ref Donate et al, 2003; cited from earlier work
Description: (§1) ATN-161 is a noncompetitive inhibitor of the fibronectin PHSRN sequence, in which a cysteine residue has been substituted for arginine along with peptide acetylation and amidation in order to yield a product with acceptable pharmaceutical properties (Ac-PHSCN-NH2). […] Thus, ATN-16 ...

[3] = system: integrin-dependent adhesion; conditions: ref Plunkett and Mazar, 2002, Plunkett et al; cited from earlier work
Description: as §1

MLL tumours = conditions: Copenhagen rats, ref Livant et al, 2000b, cited from earlier work
advanced solid tumours = assay: Clinical response by RECIST in phase 1 trial; format: in vivo, human
Method: During treatment, patients were evaluated monthly with physical examinations including toxicity assessment using the CTC, ECOG PS, serum chemistry, haematology and coagulation testing. Tumour burden was reassessed every two cycles (8 weeks) by physical exam or radiological methods as appropriate using RECIST ([Therasse et al, 2000]).

[4] = animal studies, preclinical; ref not given; cited from earlier work
MLL cells = conditions: attempts to show induction; ref Livant et al, 2000b; cited from earlier work
[5] = system: DU145 prostate cancer cell line; conditions: in vitro, human DU145 prostate cancer cell line; ref Livant et al, 2000b; cited from earlier work
Description: (§2) In vitro, ATN-161 inhibited PHSRN-induced basement membrane invasion of human (DU145) and rat (MLL) prostate cancer cell lines ([Livant et al, 2000b]).

[6] = system: MLL prostate cancer cell line; conditions: in vitro, rat MLL prostate cancer cell line; ref Livant et al, 2000b; cited from earlier work
Description: as §2

[7] = Serological antibody immune response against ATN-161 in patients; format: in vivo, human
[8] = Plasma pharmacokinetics in phase 1 trial; conditions: human, iv; for Vd: patients, Day 1, HPLC-MS/MS, noncompartmental, cohort mean
Method: as §3, §4, §5

Substance: Ac-PHSCN-NH2 [ATN-161, Ac-PHSCN-NH2]
- Toxicity in preclinical toxicology studies ([1]; primates): no consistent evidence of ATN-161 toxicity
- Toxicity in preclinical toxicology studies ([1]; rats): no consistent evidence of ATN-161 toxicity
- time after dose administration in which the majority of the dose was excreted ([2]; almost all patients (23 of 26)): ≤ 2 h
- dose excreted ([2]; 0.1 mg/kg, patients, 0.1 mg kg^−1 10-min i.v. infusion, Day 1, HPLC-MS/MS, cohort mean, read-out: Urinary excretion between 0 and 7 h as a percent of dose): 2.46%
- dose excreted ([2]; 0.25 mg/kg, patients, 0.25 mg kg^−1 10-min i.v. infusion, Day 1, HPLC-MS/MS, cohort mean, read-out: Urinary excretion between 0 and 7 h as a percent of dose): 13.8%
- dose excreted ([2]; 0.5 mg/kg, patients, 0.5 mg kg^−1 10-min i.v. infusion, Day 1, HPLC-MS/MS, cohort mean, read-out: Urinary excretion between 0 and 7 h as a percent of dose): 25.3%
- dose excreted ([2]; 1 mg/kg, patients, 1 mg kg^−1 10-min i.v. infusion, Day 1, HPLC-MS/MS, cohort mean, read-out: Urinary excretion between 0 and 7 h as a percent of dose): 1.82%
- dose excreted ([2]; 2 mg/kg, patients, 2 mg kg^−1 10-min i.v. infusion, Day 1, HPLC-MS/MS, cohort mean, read-out: Urinary excretion between 0 and 7 h as a percent of dose): 2.35%
- dose excreted ([2]; 4 mg/kg, patients, 4 mg kg^−1 10-min i.v. infusion, Day 1, HPLC-MS/MS, cohort mean, read-out: Urinary excretion between 0 and 7 h as a percent of dose): 2.36%
- dose excreted ([2]; 8 mg/kg, patients, 8 mg kg^−1 10-min i.v. infusion, Day 1, HPLC-MS/MS, cohort mean, read-out: Urinary excretion between 0 and 7 h as a percent of dose): 17.5%
- dose excreted ([2]; 16 mg/kg, patients, 16 mg kg^−1 10-min i.v. infusion, Day 1, HPLC-MS/MS, cohort mean, read-out: Urinary excretion between 0 and 7 h as a percent of dose): 15.3%
- dose excreted ([2]; majority of the patients (20 of 26), all dose levels, urine 0-7 h, read-out: Urinary excretion, percent of administered dose): ~2%
- dose excreted ([2]; remaining six of 26 patients, not associated with dose level, urine 0-7 h, read-out: Urinary excretion, percent of administered dose): 20 to 50%
- Binding to integrin subunits (integrin beta subunits): binds exclusively to integrin beta subunits
- Block of integrin-dependent adhesion [3]: does not block
- Growth of primary MLL tumours (MLL tumours; systemic 5 mg kg^−1, five injections over 16 days): markedly reduced
- Ability of MLL tumour cells to metastasise (MLL tumours): inhibited
- Objective response as defined by RECIST (advanced solid tumours; 26 patients, 0.1-16 mg kg^−1 thrice weekly i.v.): No patient in the study had an objective response
- Fraction of patients with prolonged stable disease (advanced solid tumours; patients in the study, all dose levels): 1/3
- Patients with stable disease of >4 months (advanced solid tumours; six of the 26 treated patients, 0.1-16 mg kg^−1 thrice weekly i.v.): 23%
- Immunogenicity [4]: not immunogenic
- Induction of apoptosis in MLL cells (MLL cells): unsuccessful
- PHSRN-induced basement membrane invasion [5]: inhibited
- PHSRN-induced basement membrane invasion [6]: inhibited
- Antibody immune response against ATN-161 [7]: no serological evidence
- AUC(0-t) ([8]; 0.25 mg/kg): 3420 ng·h/mL
- Cmax ([8]; 0.25 mg/kg): 1120 ng/mL
- MRT ([8]; 0.25 mg/kg): 5.5 h
- clearance ([8]; 0.25 mg/kg): 1.33 mL/min/kg
- half-life ([8]; 0.25 mg/kg): 4.4 h
- Vd ([8]; 0.25 mg/kg, Vd (volume of distribution), 0.25 mg kg^−1 10-min i.v. infusion): 0.48 L/kg
- Vd ([8]; 0.25 mg/kg, Vss (volume of distribution at steady state), 0.25 mg kg^−1 10-min i.v. infusion): 0.33 L/kg
- AUC(0-t) ([8]; 0.5 mg/kg): 3610 ng·h/mL
- Cmax ([8]; 0.5 mg/kg): 5790 ng/mL
- MRT ([8]; 0.5 mg/kg): 3.3 h
- clearance ([8]; 0.5 mg/kg): 2.83 mL/min/kg
- half-life ([8]; 0.5 mg/kg): 3.2 h
- Vd ([8]; 0.5 mg/kg, Vd (volume of distribution), 0.5 mg kg^−1 10-min i.v. infusion): 0.87 L/kg
- Vd ([8]; 0.5 mg/kg, Vss (volume of distribution at steady state), 0.5 mg kg^−1 10-min i.v. infusion): 0.47 L/kg
- AUC(0-t) ([8]; 1 mg/kg): 1450 ng·h/mL
- Cmax ([8]; 1 mg/kg): 3800 ng/mL
- MRT ([8]; 1 mg/kg): 3.8 h
- clearance ([8]; 1 mg/kg): 10.2 mL/min/kg
- half-life ([8]; 1 mg/kg): 3.9 h
- Vd ([8]; 1 mg/kg, Vd (volume of distribution), 1 mg kg^−1 10-min i.v. infusion): 3.38 L/kg
- Vd ([8]; 1 mg/kg, Vss (volume of distribution at steady state), 1 mg kg^−1 10-min i.v. infusion): 2.3 L/kg
- AUC(0-t) ([8]; 2 mg/kg): 3320 ng·h/mL
- Cmax ([8]; 2 mg/kg): 15700 ng/mL
- MRT ([8]; 2 mg/kg): 2.5 h
- clearance ([8]; 2 mg/kg): 11.5 mL/min/kg
- half-life ([8]; 2 mg/kg): 3.5 h
- Vd ([8]; 2 mg/kg, Vd (volume of distribution), 2 mg kg^−1 10-min i.v. infusion): 3.38 L/kg
- Vd ([8]; 2 mg/kg, Vss (volume of distribution at steady state), 2 mg kg^−1 10-min i.v. infusion): 1.93 L/kg
- AUC(0-t) ([8]; 4 mg/kg): 3710 ng·h/mL
- Cmax ([8]; 4 mg/kg): 5480 ng/mL
- MRT ([8]; 4 mg/kg): 4.8 h
- clearance ([8]; 4 mg/kg): 14.5 mL/min/kg
- half-life ([8]; 4 mg/kg): 4.3 h
- Vd ([8]; 4 mg/kg, Vd (volume of distribution), 4 mg kg^−1 10-min i.v. infusion): 5.59 L/kg
- Vd ([8]; 4 mg/kg, Vss (volume of distribution at steady state), 4 mg kg^−1 10-min i.v. infusion): 3.82 L/kg
- AUC(0-t) ([8]; 8 mg/kg): 34200 ng·h/mL
- Cmax ([8]; 8 mg/kg): 34400 ng/mL
- MRT ([8]; 8 mg/kg): 3.4 h
- clearance ([8]; 8 mg/kg): 7 mL/min/kg
- half-life ([8]; 8 mg/kg): 3.3 h
- Vd ([8]; 8 mg/kg, Vd (volume of distribution), 8 mg kg^−1 10-min i.v. infusion): 2.14 L/kg
- Vd ([8]; 8 mg/kg, Vss (volume of distribution at steady state), 8 mg kg^−1 10-min i.v. infusion): 1.32 L/kg
- AUC(0-t) ([8]; 16 mg/kg): 54900 ng·h/mL
- Cmax ([8]; 16 mg/kg): 72700 ng/mL
- MRT ([8]; 16 mg/kg): 5.3 h
- clearance ([8]; 16 mg/kg): 5.83 mL/min/kg
- half-life ([8]; 16 mg/kg): 5 h
- Vd ([8]; 16 mg/kg, Vd (volume of distribution), 16 mg kg^−1 10-min i.v. infusion): 2.36 L/kg
- Vd ([8]; 16 mg/kg, Vss (volume of distribution at steady state), 16 mg kg^−1 10-min i.v. infusion): 1.61 L/kg
